Drawing on patent US5118599A, “Yellow couplers for photographic elements and processes” (Eastman Kodak Company, priority 1991, dated 1992), this text covers pKa and λmax for 16 compounds.

One series can be described thus: pKa Measurements. The note with it: Table 1. It counts as physicochemical. The text has this: The structural preference of the coupler for the axial conformation has important implications for […]. Due largely to the ability of the carbonyl oxygen to enolize and form H-bonds with the oxygen atoms of the dioxane ring, the pKa of the coupler is generally 1-2 units lower than pivaloyl acetanilide-based couplers. A lower pKa value means that the coupler ionizes more readily at pH 10, and results in higher coupling activity with oxidized color developer, as shown in Table 1.

Series [1] in a line: Photographic single layer element: Dmax, Dmin, gamma and λmax after color development. The method, then: Single layer photographic elements were prepared by coating a cellulose acetate-butyrate film support with a photosensitive layer containing a silver bromide emulsion at 70.2 and 140.4 mg/ft^2 for 2 and 4 equivalent couplers, respectively, gelatin at 350 mg/ft^2 and an image coupler (0.20 mmol/ft^2) dispersed in half its weight of dibutyl phthalate. The photosensitive layer was overcoated with a layer containing gelatin at 250 mg/ft^2 and bis vinylsulfonyl methyl ether hardener at 2.0 weight percent based on total gel.
Samples of each element were exposed imagewise through a stepped density test object and processed at 100° F. employing the following color developing solution, then stopped with a low pH bath, bleached, fixed, washed and dried to produce stepped colored images.
Color Developer Solution (2')
4-Amino-3-methyl-N-ethyl 3.55 g
Water to make 1 liter, pH 10.0
Densitometry in the appropriate color maximum density (Dmin and Dmax) and gamma defined as the maximum slope between any two adjacent density points.

The mark [2] stands for this setting: Table 4, color developer pH 10.0.

Broadly, the pKa is the pH at which an ionisable group is half protonated. A lower pKa goes with a stronger acid or weaker base.

`CCCCCCCCCCCCCCCCS(=O)(=O)Nc1ccc(Cl)c(NC(=O)CC(=O)C2(C)COCOC2)c1` [Coupler D-4]: the pKa in the series “pKa Measurements” amounted to 8.42. Also, the λmax in series [1] (Table 3, D99, pH 10.0, KS-2) came to 454; in series [1] (setting [2]), 454 nm.
`CCCCCCCCCCCCCCCCS(=O)(=O)Nc1ccc(Cl)c(NC(=O)C(Oc2ccc(S(=O)(=O)c3ccc(OCc4ccccc4)cc3)cc2)C(=O)C(C)(C)C)c1` (stereo not drawn) [P-I, reference compound] yielded a λmax in series [1] (setting [2]) of 452 nm.
For the compound `CCCCCCCCCCCCCCCCS(=O)(=O)Nc1ccc(Cl)c(NC(=O)CC(=O)C(C)(C)C)c1` [P-V, reference compound], the λmax in series [1] (Table 3, D99, pH 10.0, KS-2) worked out at 449; in series [1] (setting [2]), 449 nm.
Compound `CCCCCCCCCCCCCCCCS(=O)(=O)Nc1ccc(OC)c(NC(=O)CC(=O)C2(C)COC(C)(C)OC2)c1` [Coupler D-2] returned a λmax in series [1] (Table 3, D99, pH 10.0, KS-2) of 446.
For `CCC(C)(C)c1ccc(OCCCC(=O)Nc2ccc(Cl)c(NC(=O)CC(=O)C(C)(C)C)c2)c(C(C)(C)CC)c1` [P-VI, reference compound], the pKa in the series “pKa Measurements” was determined as 10.01. The λmax in series [1] (Table 3, D99, pH 10.0, KS-2) is recorded as 447; in series [1] (setting [2]), 447 nm.
On to `CCOC1C(=O)N(C(C(=O)Nc2cc(NC(=O)CCCOc3ccc(C(C)(C)CC)cc3C(C)(C)CC)ccc2OC)C(=O)C2(C)COC(C)(C)OC2)C(=O)N1Cc1ccccc1` [Coupler D-8], for which the λmax in series [1] (setting [2]) amounted to 445 nm.
With `CCC(C)(C)c1ccc(OCCCC(=O)Nc2ccc(OC)c(NC(=O)C(Oc3ccc(S(=O)(=O)c4ccc(O)cc4)cc3)C(=O)C3(C)COCOC3)c2)c(C(C)(C)CC)c1` [Coupler D-14], in series [1] (setting [2]), the λmax is 448 nm.
Regarding `CCC(C)(C)c1ccc(OCCCC(=O)Nc2ccc(Cl)c(NC(=O)CC(=O)C3(C)COC(C)(C)OC3)c2)c(C(C)(C)CC)c1` [Coupler D-0], the pKa in the series “pKa Measurements” was found to be 8.51.
As to `CCC(C)(C)c1ccc(OCCCC(=O)Nc2ccc(OC)c(NC(=O)CC(=O)C3(C)COCOC3)c2)c(C(C)(C)CC)c1` [Coupler D-3], the λmax in series [1] (setting [2]) is listed as 446 nm.
On the same count and under the same terms, as for `CCC(C)(C)c1ccc(OCCCC(=O)Nc2ccc(C)c(NC(=O)C(Oc3ccc(S(=O)(=O)c4ccc(O)cc4)cc3)C(=O)C3(C)COCOC3)c2)c(C(C)(C)CC)c1` [Coupler D-13], the figure is 452 nm; as for `CCC(C)(C)c1ccc(OCCCC(=O)Nc2ccc(OC)c(NC(=O)C(Oc3ccc(S(=O)(=O)c4ccc(O)cc4)cc3)C(=O)C3(C)COC(C)(C)OC3)c2)c(C(C)(C)CC)c1` [Coupler D-7], 445 nm.
In “pKa Measurements”, `CCC(C)(C)c1ccc(OCCCC(=O)Nc2ccc(Cl)c(NC(=O)C(Oc3ccc(S(=O)(=O)c4ccc(OCc5ccccc5)cc4)cc3)C(=O)C(C)(C)C)c2)c(C(C)(C)CC)c1` (stereo not drawn) [P-III, reference compound] had a pKa of 8.76. The compound further came in with a λmax in series [1] (setting [2]) of 450 nm.
In the case of `CCC(C)(C)c1ccc(OCCCC(=O)Nc2cccc(NC(=O)C(Oc3ccc(S(=O)(=O)c4ccc(O)cc4)cc3)C(=O)C3(C)COCOC3)c2)c(C(C)(C)CC)c1` [Coupler D-12], the λmax in series [1] (setting [2]) is 454 nm.
In “pKa Measurements”, `CCC(C)(C)c1ccc(OCCCC(=O)Nc2ccc(Cl)c(NC(=O)C(Oc3ccc(S(=O)(=O)c4ccc(OCc5ccccc5)cc4)cc3)C(=O)C3(C)COCOC3)c2)c(C(C)(C)CC)c1` [Coupler D-11] displayed a pKa of 7.24.
Compound `CCC(C)(C)c1ccc(OCCCC(=O)Nc2ccc(Cl)c(NC(=O)C(Oc3ccc(S(=O)(=O)c4ccc(O)cc4)cc3)C(=O)C3(C)COCOC3)c2)c(C(C)(C)CC)c1` [Coupler D-10] yielded a pKa in the series “pKa Measurements” of 7.55. In series [1] (setting [2]), this compound yielded a λmax of 453 nm.
With `CCC(C)(C)c1ccc(OCCCC(=O)Nc2ccc(Cl)c(NC(=O)CC(=O)C3(C)COCOC3)c2)c(C(C)(C)CC)c1` [Coupler D-5], the λmax in series [1] (Table 3, D99, pH 10.0, KS-2) is on record as 452; in series [1] (setting [2]), 452 nm.
